Measured values: US20100068766A1, “COMPOSITION FOR CLEAVING AND/OR CONNECTING SINGLE STRAND DNA” (WASEDA UNIVERSITY, priority 2007, published 2010)

Columns and labels:
Ev1 protein [1] = target: T1, Ev1 protein (Homo sapiens, UniProt Q9UI08); assay: Influence of low molecular weight compounds on single-stranded DNA catenation activity of the Ev1 protein; assay type: biochemical; details: compound 1, 5, 10 and 20 μM; 4 μM Ev1 protein; 20 μM φ×174 single-stranded DNA; 37° C., 1 hour
T1 construct: in accordance with the protocols used in purification of the entire-length Ev1 protein; 6xHis (N, cleaved yes); made in house; host or cells: E. coli BL21 (DE3) codon plus-RP, pET15b vector
T1 sequence (Q9UI08 1-418 isoform Q9UI08-2): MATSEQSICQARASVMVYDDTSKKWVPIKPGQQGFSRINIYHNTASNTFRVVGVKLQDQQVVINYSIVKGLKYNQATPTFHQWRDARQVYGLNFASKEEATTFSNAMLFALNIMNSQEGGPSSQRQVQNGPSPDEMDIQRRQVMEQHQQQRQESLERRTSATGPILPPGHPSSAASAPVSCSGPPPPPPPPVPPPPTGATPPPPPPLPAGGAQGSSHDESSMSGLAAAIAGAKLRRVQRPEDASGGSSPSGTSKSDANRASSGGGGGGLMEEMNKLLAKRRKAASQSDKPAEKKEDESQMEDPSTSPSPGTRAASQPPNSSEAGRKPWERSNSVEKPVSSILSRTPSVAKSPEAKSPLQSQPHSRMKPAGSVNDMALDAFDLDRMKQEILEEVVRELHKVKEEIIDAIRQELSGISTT
Method: With regard to the influence of each compound on the catenation activity of the Ev1 protein (FIGS. 14a, 15a, 16, 17a, and 18a), each compound in final concentrations of 1, 5, 10, and 20 μM, a φ×174 single-stranded DNA in a final concentration of 20 μM, and an Ev1 protein in a final concentration of 4 μM were added to 10 μl of a reaction solution (20 mM HEPES, 1 mM DTT, 100 μg/ml BSA, and 1 mM MgCl2). The obtained mixture was reacted at 37° C. for 1 hour. After completion of the reaction, 2 μl of a PK solution (0.2% SDS and 1.3 mg/ml proteinase K) was added to the reaction solution, and the obtained mixture was then reacted at 37° C. for 15 minutes. Thereafter, the reaction product was electrophoresed on a 0.8% HGT agarose gel, and DNA was then detected with SYBR Gold.

Ev1 protein [2] = target: T1, Ev1 protein; assay: Gel shift method, single-stranded DNA binding activity of the Ev1 protein in the presence of compounds; details: compound 1, 5, 10 and 20 μM; 0.3 μM Ev1 protein; 20 μM φ×174 single-stranded DNA; 37° C., 15 minutes
Method: Moreover, in a gel shift method involving single-stranded DNA binding activity (FIGS. 14b, 15b, 16b, 17b, and 18b), each compound in final concentrations of 1, 5, 10, and 20 μM, a φ×174 single-stranded DNA in a final concentration of 20 μM, and an Ev1 protein in a final concentration of 0.3 μM were added to 20 μl of a reaction solution (20 mM HEPES, 1 mM DTT, 100 μg/ml BSA, and 1 mM MgCl2). The obtained mixture was reacted at 37° C. for 15 minutes. Thereafter, the reaction product was electrophoresed on a 0.8% HGT agarose gel, and DNA was then detected with ethidium bromide.

Cc1cc(N)c2ccccc2[n+]1CCCCCCCCCC[n+]1c(C)cc(N)c2ccccc21 [dequalinium, dequalinium chloride]
effect on single-stranded DNA catenation activity of the Ev1 protein (Ev1 protein [1]): inhibits the single-stranded DNA catenation activity of the Ev1 protein | influence on activity of the Ev1 protein to bind to single-stranded DNA (gel shift) (Ev1 protein [2]): changes the binding manner of the Ev1 protein that binds to a single-stranded DNA

Nc1ccc2c(=S)c3ccccc3[nH]c2c1 [3-ATA, 3-amino-9-thio(10H)-acridone]
effect on single-stranded DNA catenation activity of the Ev1 protein (Ev1 protein [1]): inhibits the single-stranded DNA catenation activity of the Ev1 protein | influence on activity of the Ev1 protein to bind to single-stranded DNA (gel shift) (Ev1 protein [2]): does not change the single-stranded DNA binding activity of the Ev1 protein

β-rubromycin
effect on single-stranded DNA catenation activity of the Ev1 protein (Ev1 protein [1]): inhibits the single-stranded DNA catenation activity of the Ev1 protein | influence on activity of the Ev1 protein to bind to single-stranded DNA (gel shift) (Ev1 protein [2]): changes the binding manner of the Ev1 protein that binds to a single-stranded DNA

O=S(=O)(O)c1cc(N=C=S)ccc1C=Cc1ccc(N=C=S)cc1S(=O)(=O)O [DIDS]
effect on single-stranded DNA catenation activity of the Ev1 protein (Ev1 protein [1]): inhibits the single-stranded DNA catenation activity of the Ev1 protein | influence on activity of the Ev1 protein to bind to single-stranded DNA (gel shift) (Ev1 protein [2]): inhibits the single-stranded DNA binding activity of the Ev1 protein

CC[C@@]1(O)C[C@H](O[C@H]2C[C@H](N(C)C)[C@H](O[C@H]3C[C@H](O)[C@H](O[C@H]4CCC(=O)[C@H](C)O4)[C@H](C)O3)[C@H](C)O2)c2c(cc3c(c2O)C(=O)c2c(O)cccc2C3=O)[C@H]1C(=O)OC [aclarubicin]
effect on single-stranded DNA catenation activity of the Ev1 protein (Ev1 protein [1]): inhibits the activity of an Ev1 protein to catenate single-stranded DNA molecules | influence on activity of the Ev1 protein to bind to single-stranded DNA (gel shift) (Ev1 protein [2]): does not change the activity of the Ev1 protein to bind to circular single-stranded DNA
